# Experimental data as given in PMC9927415, “Tyrosine Kinase Inhibitors Display Potent Activity against Cryptosporidium parvum” (Microbiology Spectrum, 2022).
# What was measured:
# Assay in all cases: KINOMEscan competitive binding
# [1] = target: T1, PHKG2 (Homo sapiens, UniProt P15735); details: n=1, read-out: Percent inhibition, PHKG2
# T1 construct: purchased DiscoverX (KINOMEscan)
# T1 sequence (P15735 1-406): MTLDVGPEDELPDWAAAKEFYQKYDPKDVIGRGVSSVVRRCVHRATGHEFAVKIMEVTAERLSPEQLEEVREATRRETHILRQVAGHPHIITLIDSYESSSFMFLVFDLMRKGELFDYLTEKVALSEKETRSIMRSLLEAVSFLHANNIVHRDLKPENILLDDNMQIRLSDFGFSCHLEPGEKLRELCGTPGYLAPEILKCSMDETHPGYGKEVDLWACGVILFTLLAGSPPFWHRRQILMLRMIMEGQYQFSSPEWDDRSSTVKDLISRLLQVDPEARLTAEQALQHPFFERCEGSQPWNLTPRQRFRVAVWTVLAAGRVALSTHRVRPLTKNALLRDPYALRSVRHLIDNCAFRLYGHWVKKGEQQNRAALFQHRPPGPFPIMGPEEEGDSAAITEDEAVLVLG
# [2] = target: T2, TYK2(Kin.Dom.2) (Homo sapiens, UniProt P29597); details: n=1, read-out: Percent inhibition, TYK2(Kin.Dom.2)
# T2 construct: TYK2(Kin.Dom.2); purchased DiscoverX (KINOMEscan)
# T2 sequence (P29597 889-1187 limits assumed): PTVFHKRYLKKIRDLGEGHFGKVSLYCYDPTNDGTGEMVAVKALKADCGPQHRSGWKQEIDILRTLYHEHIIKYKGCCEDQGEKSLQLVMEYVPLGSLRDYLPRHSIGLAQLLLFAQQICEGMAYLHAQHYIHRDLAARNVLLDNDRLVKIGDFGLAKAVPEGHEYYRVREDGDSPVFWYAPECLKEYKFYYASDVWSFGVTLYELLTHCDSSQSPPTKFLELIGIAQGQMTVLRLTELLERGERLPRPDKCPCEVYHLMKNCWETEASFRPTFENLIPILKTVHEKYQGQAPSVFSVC
# [3] = target: T3, RPS6KA4(Kin.Dom.1) (Homo sapiens, UniProt O75676); details: n=1, read-out: Percent inhibition, RPS6KA4(Kin.Dom.1)
# T3 construct: RPS6KA4(Kin.Dom.1); purchased DiscoverX (KINOMEscan)
# T3 sequence (O75676 1-371 limits assumed): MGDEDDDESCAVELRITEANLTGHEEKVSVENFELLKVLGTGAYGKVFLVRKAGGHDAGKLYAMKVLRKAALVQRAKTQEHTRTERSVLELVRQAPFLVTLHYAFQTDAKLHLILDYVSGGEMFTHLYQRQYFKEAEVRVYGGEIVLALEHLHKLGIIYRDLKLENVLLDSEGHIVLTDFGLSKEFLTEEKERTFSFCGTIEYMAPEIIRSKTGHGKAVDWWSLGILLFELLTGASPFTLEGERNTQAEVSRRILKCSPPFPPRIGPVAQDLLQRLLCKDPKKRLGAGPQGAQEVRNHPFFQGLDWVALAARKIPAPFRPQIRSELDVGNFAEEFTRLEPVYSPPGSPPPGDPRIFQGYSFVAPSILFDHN
# [4] = target: T4, SYK (Homo sapiens, UniProt P43405); details: n=1, read-out: Percent inhibition, SYK
# T4 construct: purchased DiscoverX (KINOMEscan)
# [5] = target: T5, RPS6KA2(Kin.Dom.1) (Homo sapiens, UniProt Q15349); details: n=1, read-out: Percent inhibition, RPS6KA2(Kin.Dom.1)
# T5 construct: RPS6KA2(Kin.Dom.1); purchased DiscoverX (KINOMEscan)
# T5 sequence (Q15349 1-388 limits assumed): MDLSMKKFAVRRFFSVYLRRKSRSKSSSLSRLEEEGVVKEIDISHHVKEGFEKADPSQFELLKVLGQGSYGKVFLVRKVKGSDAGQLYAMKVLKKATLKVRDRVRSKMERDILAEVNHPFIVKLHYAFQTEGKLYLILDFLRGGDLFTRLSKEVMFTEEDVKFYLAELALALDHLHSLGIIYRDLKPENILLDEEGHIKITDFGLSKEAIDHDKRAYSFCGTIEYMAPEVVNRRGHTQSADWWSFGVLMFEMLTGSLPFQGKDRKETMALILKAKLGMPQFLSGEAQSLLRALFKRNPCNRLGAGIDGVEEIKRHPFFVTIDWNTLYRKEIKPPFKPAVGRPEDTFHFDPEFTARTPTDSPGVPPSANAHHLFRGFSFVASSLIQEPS
# [6] = target: T6, SNF1LK2 (Homo sapiens, UniProt Q9H0K1); details: n=1, read-out: Percent inhibition, SNF1LK2
# T6 construct: purchased DiscoverX (KINOMEscan)
# T6 sequence (Q9H0K1 whole entry): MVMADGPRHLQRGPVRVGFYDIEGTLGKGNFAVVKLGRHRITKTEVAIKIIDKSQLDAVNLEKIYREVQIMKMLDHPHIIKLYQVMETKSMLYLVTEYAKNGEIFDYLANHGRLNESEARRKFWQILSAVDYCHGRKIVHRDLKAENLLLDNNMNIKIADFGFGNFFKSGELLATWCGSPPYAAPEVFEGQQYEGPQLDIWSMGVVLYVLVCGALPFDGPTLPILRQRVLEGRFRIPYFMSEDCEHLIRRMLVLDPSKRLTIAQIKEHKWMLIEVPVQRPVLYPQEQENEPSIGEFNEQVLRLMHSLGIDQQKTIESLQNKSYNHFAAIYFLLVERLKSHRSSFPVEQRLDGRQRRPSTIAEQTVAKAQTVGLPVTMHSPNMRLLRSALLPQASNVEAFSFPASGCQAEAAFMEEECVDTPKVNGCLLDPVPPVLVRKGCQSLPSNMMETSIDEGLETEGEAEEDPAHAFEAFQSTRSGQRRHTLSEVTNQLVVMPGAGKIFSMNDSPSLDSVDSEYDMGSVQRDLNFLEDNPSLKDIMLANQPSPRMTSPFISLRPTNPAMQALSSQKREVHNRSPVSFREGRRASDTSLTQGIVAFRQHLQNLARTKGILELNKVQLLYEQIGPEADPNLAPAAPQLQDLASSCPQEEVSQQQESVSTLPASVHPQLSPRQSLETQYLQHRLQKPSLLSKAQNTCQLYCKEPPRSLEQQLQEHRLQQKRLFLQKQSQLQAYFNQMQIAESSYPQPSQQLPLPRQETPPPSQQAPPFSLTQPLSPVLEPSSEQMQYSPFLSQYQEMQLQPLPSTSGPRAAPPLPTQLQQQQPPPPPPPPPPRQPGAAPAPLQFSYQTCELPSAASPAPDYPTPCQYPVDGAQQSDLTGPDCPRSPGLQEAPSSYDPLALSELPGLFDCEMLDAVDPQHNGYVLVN
# [7] = target: T7, PRKG2 (Homo sapiens, UniProt Q13237); details: n=1, read-out: Percent inhibition, PRKG2
# T7 construct: purchased DiscoverX (KINOMEscan)
# T7 sequence (Q13237 1-762): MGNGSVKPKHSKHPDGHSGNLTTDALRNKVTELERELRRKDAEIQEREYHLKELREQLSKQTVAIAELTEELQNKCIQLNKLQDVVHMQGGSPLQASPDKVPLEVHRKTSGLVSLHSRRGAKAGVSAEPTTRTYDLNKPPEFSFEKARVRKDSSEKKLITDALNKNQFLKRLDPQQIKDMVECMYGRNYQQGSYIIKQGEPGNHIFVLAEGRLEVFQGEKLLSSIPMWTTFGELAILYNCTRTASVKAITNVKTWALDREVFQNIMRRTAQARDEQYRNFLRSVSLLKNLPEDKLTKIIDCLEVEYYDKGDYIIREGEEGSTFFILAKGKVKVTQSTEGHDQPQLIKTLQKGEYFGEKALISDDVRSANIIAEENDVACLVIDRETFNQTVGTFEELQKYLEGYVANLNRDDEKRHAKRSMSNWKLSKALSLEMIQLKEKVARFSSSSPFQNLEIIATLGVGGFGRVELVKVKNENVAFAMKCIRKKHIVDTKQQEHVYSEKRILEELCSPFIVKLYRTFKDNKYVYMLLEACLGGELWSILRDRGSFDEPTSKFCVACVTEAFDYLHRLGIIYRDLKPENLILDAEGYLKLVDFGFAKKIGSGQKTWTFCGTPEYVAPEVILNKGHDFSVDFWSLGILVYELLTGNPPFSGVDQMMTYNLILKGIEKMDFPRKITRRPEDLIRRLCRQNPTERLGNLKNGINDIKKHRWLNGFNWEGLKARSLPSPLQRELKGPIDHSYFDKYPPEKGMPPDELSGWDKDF
# [8] = target: T8, RPS6KA3(Kin.Dom.1) (Homo sapiens, UniProt P51812); details: n=1, read-out: Percent inhibition, RPS6KA3(Kin.Dom.1)
# T8 construct: RPS6KA3(Kin.Dom.1); purchased DiscoverX (KINOMEscan)
# T8 sequence (P51812 1-397 limits assumed): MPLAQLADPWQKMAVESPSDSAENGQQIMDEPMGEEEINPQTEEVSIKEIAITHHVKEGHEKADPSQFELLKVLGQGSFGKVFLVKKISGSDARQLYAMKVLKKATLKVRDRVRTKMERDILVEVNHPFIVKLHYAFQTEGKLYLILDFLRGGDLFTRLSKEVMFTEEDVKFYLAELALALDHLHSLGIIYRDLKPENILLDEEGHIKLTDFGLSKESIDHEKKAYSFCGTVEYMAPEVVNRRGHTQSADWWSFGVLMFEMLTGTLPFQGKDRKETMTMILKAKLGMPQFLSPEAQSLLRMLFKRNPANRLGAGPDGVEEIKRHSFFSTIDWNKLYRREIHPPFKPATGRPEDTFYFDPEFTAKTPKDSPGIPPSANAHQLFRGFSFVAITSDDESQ
SMILES,inhibition at 10 µM [1] [%],inhibition at 10 µM [2] [%],inhibition at 10 µM [3] [%],inhibition at 10 µM [4] [%],inhibition at 10 µM [5] [%],inhibition at 10 µM [6] [%],inhibition at 10 µM [7] [%],inhibition at 10 µM [8] [%]
CN1CCN(c2ccc(Nc3nccc(-c4cnn5ncccc45)n3)cc2C#N)CC1 [Compound 1],100,88.2,0,78.3,77.6,69.9,0,86
COc1ccc(Nc2nccc(-c3cnn4ncccc34)n2)cc1 [Compound 2],97.1,0,0,80.9,0,0,0,0
Cc1ccc(O)cc1Nc1ccnc(Nc2cccc(C(N)=O)c2)n1 [Compound 3],0,94,0,–,0,96.7,0,0
Cc1ccc(O)cc1N(C)c1ccnc(Nc2cccc(S(N)(=O)=O)c2)n1 [Compound 4],0,95.6,0,98.7,0,95.1,0,0
Fc1cccc(COc2ccc(Nc3ncnc4c3CN(CCN3CCOCC3)CC4)cc2Cl)c1 [Compound 6],0,0,0,0,0,0,0,0
COc1cc(Nc2nccc(-c3sc(N)nc3-c3cccc(NC(=O)c4c(F)cccc4F)c3)n2)cc(OC)c1OC [Compound 7],0,97.2,98.9,98.9,97.2,99.4,0,99.8
C[C@@H](Oc1cc(-c2cnc3ccccn23)sc1C(N)=O)c1ccccc1Cl [Compound 8],74.6,0,0,0,70,0,0,0
c1ccc(COc2cccc(-c3ccnc4[nH]ccc34)c2)cc1 [Compound 9],0,0,0,0,0,0,0,0
Clc1ccc(Nc2ncc(-c3ccccc3)s2)cc1 [Compound 10],0,0,0,0,0,0,0,0
Nc1ncc2c(-c3ccncc3)c[nH]c2n1 [Compound 11],0,0,0,75.9,0,0,0,0
